From patent US20080021099A1, “5-Cyano-prostacyclin derivatives as agents for the treatment of autoimmune disease” (Bayer Schering Pharma Aktiengesellschaft, priority 2006, published 2008)
Like-named read-outs stand apart in the source and are kept apart here.

Key:
Type in all cases: cell-based
[1] = system: human T cells; experiment: ConA-stimulated T lymphocyte Th-1 cytokine (IFN-γ) release, ELISA; settings: for inhibition at 0.0005 µM / inhibition at 0.00125 µM / inhibition at 0.0025 µM / inhibition at 0.005 µM / inhibition at 0.01 µM / inhibition at 0.02 µM: Homo sapiens, T-cell, 18 h, ConA 2 μg/mL, approx. 18 hr, read-out: Inhibition (percent) of IFN-γ release; for inhibition at 0.0005 µM: Nileprost 0.5 nM; for inhibition at 0.00125 µM: Nileprost 1.25 nM; for inhibition at 0.0025 µM: Nileprost 2.5 nM; for inhibition at 0.005 µM: Nileprost 5 nM; for inhibition at 0.01 µM: Nileprost 10 nM; for inhibition at 0.02 µM: Nileprost 20 nM
From the text: The activation of a human T lymphocyte by an antigen-presenting cell and antigen through the T cell receptor is mimicked in experimental conditions by the lectin Concanavilin A (ConA). It is known that ConA binds to the T cell receptor and stimulates the cell to release various cytokines. The binding of Nileprost to the EP receptor inhibits various cytokines release. One of the Th-1 released cytokines is IFN-γ. The biochemistry and biological activities of IFN-γ have been extensively reviewed in the literature.
Human IFN-γ is a dimer of the expressed 143 amino acid protein. Enzyme-linked immunosorbant assays (ELISA) based on antibodies specific to IFN-γ are commercially available. Standards and samples are pipetted into the wells of a microplate. An antibody specific to human IFN-γ is added to the wells. A substrate is added to the wells and color develops in proportion to the amount of IFN-γ bound. The intensity of the color is measured.
Peripheral blood lymphocytes were isolated from human donors using a Ficoll density gradient and residual erythrocytes were removed by selective lysis. The lymphocytes are cultured at approximately 10^6 cells per mL in RPMI1640 with 10% additional fetal bovine serum. The cell cultures were activated with 2 μg/mL of ConA as described above. Nileprost was added at various dilutions during the ConA activation. Cells were incubated for approximately 18 hr at 37° C. IFN-γ released during activation was measured by ELISA.

[2] = system: human CD8 cells; experiment: Anti-CD3/CD28-stimulated cytotoxic CD8+ lymphocyte cytokine release, multi-cytokine bead immunoassay; settings: 1 μM Nileprost; for inhibition at 1 µM: Homo sapiens, Lymphocyte, Anti-CD3/CD28 stimulation, overnight
From the text: The activation of a human T lymphocyte by an antigen-presenting cell and antigen through the T cell receptor is mimicked in experimental conditions by the addition of antibodies to the CD3 subunit of the T cell receptor and antibodies to the CD28 costimulatory receptor. It is known that anti-CD3 anti-CD28 binding to T lymphocytes stimulates the cells to release various cytokines. Some of these cytokines are IL-2, IFN-γ and GM-CSF. The biochemistry and biological activities of these cytokines have been extensively reviewed in the literature. The binding of Nileprost to the EP receptor inhibits the release of various CD8+ cytokines.
Multi-cytokine immunosorbant assays based on antibodies specific to human cytokines are commercially available. Standards and samples are pipetted into sample tubes. A monoclonal antibody specific for a cytokine is covalently linked to a fluorescent bead set, which captures the cytokine. A complementary biotinylated monoclonal cytokine antibody then completes the immunological sandwich and the reaction is detected with streptavidin-phycoerythrin.
CD14-negative populations were isolated from four donors by Miltenyi CD14 beads. The four populations were allowed to rest at 5×10^6/mL in separate flasks overnight in RPMI 1640, 10% fetal bovine serum. Meanwhile, anti-CD3 antibody (OKT3, functional antibody, eBioscience) were bound to 10 cm plates at 5 μg/mL in sodium carbonate binding buffer at 4° C. The next day, the cells were mixed and 1×10^9 cells were taken for CD8 isolation using the Milenyi CD8 isolation kit (negative selection). The resulting 3.9×10^8 CD8 cells were resuspended in medium at 4×10^6/mL and added to the 10 cm CD3-bound plates. Soluble anti-CD28 (2-5 μg/mL) and 1 μM Nileprost or vehicle alone were added to the CD8 cells. Incubation was continued overnight and cytokines were detected as described above.

[3] = system: Human monocyte derived dendritic cells; experiment: LPS-stimulated monocyte-derived dendritic cell IL-12 release, ELISA; settings: 1 μM of Nileprost; for inhibition at 1 µM: Homo sapiens, Dendritic cell, 18 h, 10 ng/mL LPS, approx. 18 hr, read-out: Inhibition (percent) of IL-12 release
From the text: Following stimulation through the toll-like receptors TLR, DCs express and release proinflammatory cytokines and chemokines and may induce activation and proliferation of naïve T cells. The binding of Nileprost to the EP receptor inhibits TLR4 ligand (LPS)-stimulated IL-12 release. Therefore, Nileprost skews the CD4 T cell differentiation to a Th-2 lineage.
IL-12 is a 75 kDa glycoprotein heterodimer (p70) composed of two genetically unrelated subunits linked by a disulfide bond. Enzyme-linked immunosorbant assays based on antibodies specific to IL-12 p70 are commercially available. Standards and samples are pipetted into the wells of a microplate. An antibody specific to human IL-12 is added to the wells. A substrate is added to the wells and color develops in proportion to the amount of IL-12 bound. The intensity of the color is measured.
Human monocyte-derived dendritic cells were isolated from human donors using a Ficoll density gradient and residual erythrocytes were removed by selective lysis. CD14 MicroBeads were used for separation of human cells based on the expression of the CD14 antigen. The dendritic cells were cultured at approximately 1.5×10^6 cells per mL in RPMI1640 with fetal bovine serum, 200 ng/mL GM-CSF (Leukine) and 10 ng/mL IL-4. The cells grew for a period of 3 days and then the media was changed. 10 ng/mL LPS was used to activate the cells. 1 μM of Nileprost and 1 µM of PGE2 were added during the LPS stimulation. Cells were incubated for approximately 18 hr at 37° C. IL-12 released during activation was measured by ELISA.

Which inhibition at 0.0005 µM ([1]; Donor 1) does the source give for CCCCC(C)[C@H](O)/C=C/[C@@H]1[C@H]2C/C(=C(\C#N)CCCC(=O)O)O[C@H]2C[C@H]1O (stereo partly shown) [Nileprost] here?
Its inhibition at 0.0005 µM is 17%.

What about the inhibition at 0.00125 µM ([1]; Donor 1) of the same compound?
The inhibition at 0.00125 µM was 23%.

What about the inhibition at 0.0025 µM ([1]; Donor 1) of the same compound?
The inhibition at 0.0025 µM was 45%.

What about the inhibition at 0.005 µM ([1]; Donor 1) of the same compound?
The inhibition at 0.005 µM was 56%.

And the inhibition at 0.01 µM ([1]; Donor 1)?
The inhibition at 0.01 µM was 50%.

And the inhibition at 0.02 µM ([1]; Donor 1)?
Its inhibition at 0.02 µM is 67%.

And the inhibition at 0.0005 µM ([1]; Donor 2)?
The inhibition at 0.0005 µM was 2%.

What about the inhibition at 0.00125 µM ([1]; Donor 2) of the same compound?
The inhibition at 0.00125 µM was 11%.

What about the inhibition at 0.0025 µM ([1]; Donor 2) of the same compound?
The inhibition at 0.0025 µM was 17%.

And the inhibition at 0.005 µM ([1]; Donor 2)?
The inhibition at 0.005 µM was 35%.

What about the inhibition at 0.01 µM ([1]; Donor 2) of the same compound?
The inhibition at 0.01 µM was 43%.

What about the inhibition at 0.02 µM ([1]; Donor 2) of the same compound?
The inhibition at 0.02 µM was 41%.

And the inhibition at 0.0005 µM ([1]; Donor 3)?
Its inhibition at 0.0005 µM is 26%.

What about the inhibition at 0.00125 µM ([1]; Donor 3) of the same compound?
Its inhibition at 0.00125 µM is 36%.

What about the inhibition at 0.0025 µM ([1]; Donor 3) of the same compound?
The inhibition at 0.0025 µM was 43%.

What about the inhibition at 0.005 µM ([1]; Donor 3) of the same compound?
Its inhibition at 0.005 µM is 54%.

What about the inhibition at 0.01 µM ([1]; Donor 3) of the same compound?
The inhibition at 0.01 µM was 64%.

And the inhibition at 0.02 µM ([1]; Donor 3)?
Its inhibition at 0.02 µM is 68%.

And the inhibition at 0.0005 µM ([1]; Donor 4)?
Its inhibition at 0.0005 µM is 21%.

And the inhibition at 0.00125 µM ([1]; Donor 4)?
The inhibition at 0.00125 µM was 29%.

What about the inhibition at 0.0025 µM ([1]; Donor 4) of the same compound?
The inhibition at 0.0025 µM was 31%.

What about the inhibition at 0.005 µM ([1]; Donor 4) of the same compound?
The inhibition at 0.005 µM was 48%.

What about the inhibition at 0.01 µM ([1]; Donor 4) of the same compound?
Its inhibition at 0.01 µM is 55%.

And the inhibition at 0.02 µM ([1]; Donor 4)?
The inhibition at 0.02 µM was 56%.

And the “Inhibitory activity in T lymphocyte Th-1 cytokine release (in words)” value ([1]; dose responsively, 0.5-20 nM)?
Its value is “very high inhibitory activity”.

What about the “Inhibitory activity in cytotoxic CD8+ lymphocyte cytokine release (in words)” value [2] of the same compound?
Its value is “very high inhibitory activity”.

What about the inhibition at 1 µM ([2]; Donor 1, read-out: Inhibition (percent) of GM-CSF release) of the same compound?
The inhibition at 1 µM was 77%.

What about the inhibition at 1 µM ([2]; Donor 1, read-out: Inhibition (percent) of IFN-γ release) of the same compound?
The inhibition at 1 µM was 79%.

And the inhibition at 1 µM ([2]; Donor 1, read-out: Inhibition (percent) of IL-2 release)?
Its inhibition at 1 µM is 71%.

What about the inhibition at 1 µM ([2]; Donor 2, read-out: Inhibition (percent) of GM-CSF release) of the same compound?
Its inhibition at 1 µM is 65%.

What about the inhibition at 1 µM ([2]; Donor 2, read-out: Inhibition (percent) of IFN-γ release) of the same compound?
Its inhibition at 1 µM is 59%.

What about the inhibition at 1 µM ([2]; Donor 2, read-out: Inhibition (percent) of IL-2 release) of the same compound?
The inhibition at 1 µM was 68%.

What about the inhibition at 1 µM ([2]; Donor 3, read-out: Inhibition (percent) of GM-CSF release) of the same compound?
Its inhibition at 1 µM is 87%.

What about the inhibition at 1 µM ([2]; Donor 3, read-out: Inhibition (percent) of IFN-γ release) of the same compound?
The inhibition at 1 µM was 79%.

What about the inhibition at 1 µM ([2]; Donor 3, read-out: Inhibition (percent) of IL-2 release) of the same compound?
Its inhibition at 1 µM is 88%.

And the inhibition at 1 µM ([2]; Donor 4, read-out: Inhibition (percent) of GM-CSF release)?
Its inhibition at 1 µM is 61%.

What about the inhibition at 1 µM ([2]; Donor 4, read-out: Inhibition (percent) of IFN-γ release) of the same compound?
The inhibition at 1 µM was 80%.

What about the inhibition at 1 µM ([2]; Donor 4, read-out: Inhibition (percent) of IL-2 release) of the same compound?
The inhibition at 1 µM was 70%.

And the “Inhibitory activity in human monocyte-derived dendritic cell (DC) cytokine release (in words)” value [3]?
The value was “very high inhibitory activity”.

What about the inhibition at 1 µM ([3]; Donor 1) of the same compound?
The inhibition at 1 µM was 84%.

What about the inhibition at 1 µM ([3]; Donor 2) of the same compound?
Its inhibition at 1 µM is 51%.

And the inhibition at 1 µM ([3]; Donor 3)?
Its inhibition at 1 µM is 69%.

What about the inhibition at 1 µM ([3]; Donor 4) of the same compound?
Its inhibition at 1 µM is 66%.
